For orientation: pIC50 means the IC50 on a negative log10 scale, so that one unit is a factor of ten.

Data on four molecules can be found in patent US8470835B2, “Pyrimidinecarboxamide derivatives as inhibitors of Syk kinase” (Glaxo Group Limited, priority 2009, dated 2013).

Series [1] has as its target Recombinant human VEGFR2 (KDR) (Homo sapiens (Human), UniProt P35968). Briefly: VEGFR2 (KDR) enzyme assay, TR-FRET kinase assay (3). The series is classed as biochemical. To be noted: read-out: Vegfr enzyme assay (3) IC50. (In general: Time-resolved FRET reads energy transfer from a long-lived donor to a nearby acceptor.)
Procedure: VEGFR2 (KDR) Enzyme Assay—Time-resolved Fluorescence Resonance Energy Transfer Kinase Assay
Recombinant human VEGFR2 (KDR) intracellular domain (including the entire kinase domain) was expressed as a GST-6His-tagged protein*. The activity of VEGFR2 was assessed using a time-resolved fluorescence resonance energy transfer (TR-FRET) assay. Test compounds at the desired concentrations in 100% DMSO or 100% DMSO vehicle were added in 0.1 μL to a Greiner low-volume, 384-well, black plate (#784076). The plate was centrifuged minimally at 1000 RPM for 1 min. to force all of the liquid to the bottom of the wells prior to addition of any assay reagents. *Purification of Recombinant GST-6His-VEGFR2
VEGFR2 (100 nM typically) was activated at room temperature for 20 min. in the presence of 100 mM HEPES, pH 7.5, 10 mM MgCl2, 100 μM ATP, 300 μM DTT, and 0.1 mg/mL BSA. […] The solution of activated VEGFR2 was diluted 100-fold in 200 mM HEPES, pH 7.5, 0.2 mg/mL BSA, and 0.6 mM DTT. The VEGFR2 catalyzed reaction was initiated by the addition of 5 μL of the diluted, activated VEGFR2. […] After incubation for 10 min. at room temperature, phosphorylation of the biotinylated peptide substrate was measured as a ratio of specific 665 nm energy transfer signal to reference europium 615 nm signal using a Viewlux 1430 ultraHTS Microplate Imager (PerkinElmer, Turku, Finland).
For another series, the system named is Ramos B cells. Description: Ramos pErk assay (4). The series is classed as cell-based. To be noted: Homo sapiens, anti-IgM stimulated.
The subject of a further series is Whole blood B cells. Description: CD69 whole blood assay (6). The series is classed as cell-based. The settings on record: Homo sapiens, B-cell, all data points. The procedure: 6. CD69 Whole Blood Assay
Whole blood B cells are stimulated ex-vivo using anti-IgM. […] The subsequent autophosphorylation of Syk leads to initiation of a signalling cascade resulting in B cell activation as indicated by expression of the activation marker CD69 on the cell surface. CD20/CD69+ve whole blood B cells are detected by flow cytometry.
Stimulation of Whole Blood B Cells with Anti-IqM
100 μl heparinised human blood was added to a 5 ml polypropylene tube containing 1 μl appropriately diluted compound solution and incubated for 30 min at 37° C. with 5% CO2. B cells were stimulated with 10 μl Fab′2 fragments of goat anti-human IgM (67.5 μg/ml final) for a further 3.5 h under the conditions previously described. The red blood cells were lysed and all other cells fixed by the addition of 2 ml Lyse/Fix buffer for 10 min at room temperature.
The cells were stained using a cocktail of mouse anti-human CD20 FITC and mouse anti-human CD69 APC conjugated antibodies. CD20/CD69+ve B cells present in the sample were detected by flow cytometry.
Compound dilutions were prepared using the Biomek 2000 automated robotic pipetting system.

A further series deals with B lymphoma (BKS-2). The settings on record: mouse, in vivo; cited from earlier work.
Series [2] relates to patients with relapsed or refractory B-Cell non-Hodgkin's lymphoma (NHL). To be noted: cited from earlier work.
Series [3] deals with allergic rhinitis. The settings on record: dosed intranasally; cited from earlier work.
Series [4] relates to allergic rhinitis. To be noted: phase II; cited from earlier work.

Structures are written as SMILES. pIC50: −log10 of the molar value. Where two headings read alike, the source gives them in different places.

Recombinant human VEGFR2 (KDR), sequence (P35968 786-1356): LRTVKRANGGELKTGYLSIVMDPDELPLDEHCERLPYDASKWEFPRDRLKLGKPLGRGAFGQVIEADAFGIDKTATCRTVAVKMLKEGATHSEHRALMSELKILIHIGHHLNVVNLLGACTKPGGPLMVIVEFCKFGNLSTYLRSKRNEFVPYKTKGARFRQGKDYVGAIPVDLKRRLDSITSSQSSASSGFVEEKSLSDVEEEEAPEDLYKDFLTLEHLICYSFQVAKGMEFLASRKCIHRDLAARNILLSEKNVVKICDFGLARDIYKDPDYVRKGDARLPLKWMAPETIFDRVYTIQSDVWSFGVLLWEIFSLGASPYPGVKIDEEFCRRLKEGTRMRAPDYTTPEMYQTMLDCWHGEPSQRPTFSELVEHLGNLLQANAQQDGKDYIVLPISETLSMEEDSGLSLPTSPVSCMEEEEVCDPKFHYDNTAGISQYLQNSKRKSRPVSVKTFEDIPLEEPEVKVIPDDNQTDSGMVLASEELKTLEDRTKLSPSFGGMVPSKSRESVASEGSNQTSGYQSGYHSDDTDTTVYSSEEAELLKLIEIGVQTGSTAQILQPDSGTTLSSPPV
Procedure for Ramos B cells: Ramos B cells (human B cells of Burkitt's Lymphoma) are stimulated using anti-IgM. […] As a result Erk is phosphorylated and following cell lysis is detected by an immune capture assay.
Stimulation of Ramos Cells with Anti-IqM
Cells were plated at a density of 5×10^5/well in a volume of 25 μl assay medium (RPMI containing 10% heat inactivated foetal calf serum, 1% L-glutamine and 1% Penicillin/Streptomycin) in 96 v-well polypropylene plates. […] Cells are lysed by the addition of 55 μL 2×RIPA lysis buffer for 2 h at 4° C.
50 μl cell lysate was transferred to a 96 well MSD plate coated with anti-pErk1/2 (Thr/Thy: 202/204; 185/187) capture antibody and incubated for 16 hours at 4° C. The plate was washed and an anti-pErk detection antibody added (25 μl/well) for 2 h at room temperature. This was removed, 150 μL MSD read buffer added and the resultant electrochemiluminescence signal measured.

On to `Cc1cccc(Nc2nc(N[C@@H]3CCCC[C@@H]3N)ncc2C(N)=O)c1` [Reference example 1], for which the figures for the negative-log IC50 (pIC50) (in series [1]; with Ramos B cells (read-out: RAMOS pErk assay (4) IC50); in the series on Whole blood B cells (read-out: CD69 whole blood assay (6) IC50)) were 5.20, 7.49 and 6.30, respectively. Also, the IC50 with Ramos B cells (read-out: RAMOS pErk assay (4) pIC50 (converted)) is 31.6 nM; in the series on Whole blood B cells (read-out: CD69 whole blood assay (6) pIC50 (converted)), 501 nM.

In the case of `COc1cc(/C=C/C(=O)CC(=O)/C=C/c2ccc(O)c(OC)c2)ccc1O` [curcumin], in the series with B lymphoma (BKS-2), the “tumour burden as measured by the total splenocyte number” value is on record as “significant reduction of tumour burden”.

Take `COc1cc(Nc2ncc(F)c(Nc3ccc4c(n3)N(COP(=O)(O)O)C(=O)C(C)(C)O4)n2)cc(OC)c1OC` [Example R788, fostamatinib disodium]: the clinical efficacy result in series [2] (patients with DLBCL and CLL/SLL) is “therapeutic benefit”. The tolerability in patients result in series [2] (relapsed or refractory B-Cell NHL) was “well-tolerated”.

On to `Oc1cccc(Nc2ncc(F)c(Nc3cccc(O)c3)n2)c1` [Example R112], for which, in the series with allergic rhinitis [3], the “change in PGD2” value is on record as “statistically significant decrease” and the clinical safety entry is reported as “safe across a range of indicators”. Also, in the series on allergic rhinitis [4], the efficacy versus placebo result is recorded as “lack of efficacy versus placebo”.
